Data on one compound can be found in article PMC9032385, “A2A Adenosine Receptor Antagonists: Are Triazolotriazine and Purine Scaffolds Interchangeable?” (Molecules, 2022).

Common to all, as to type: cell-based
Experiment [1] has as its system BV-2 murine microglial cells. Description: NO production (Griess assay) in LPS-activated BV-2 cells. The conditions noted are these: then 100 ng/mL LPS for 24 h. The protocol:
To determine the effects of 13 on LPS-induced inflammatory mediators, we initially evaluated the production of NO. BV-2 cells were treated with different concentrations of 13, then, were exposed to 100 ng/mL LPS for 24 h, and the release of NO in the culture medium was measured by Griess assay (Figure 4B).
Cell Cultures and Treatments: BV-2 murine microglial cells (a gift from Prof. Elisabetta Blasi of the University of Modena and Reggio Emilia, Modena, Italy) were maintained at 37 °C and 5% CO2 in a humidified incubator and grown in DMEM supplemented with 10% (v/v) low-endotoxin fetal bovine serum (Euroclone—Milan, Italy), 2 mM L-glutamine, 50 U/mL penicillin, and 50 μg/mL streptomycin (Sigma-Aldrich–Merck, Milan, Italy). […]
Measurement of NO Production: The amount of nitrite accumulation in the culture medium of BV-2 cells was measured using Griess reagent. […] The NO concentration was evaluated by measuring the absorbance at 540 nm with a 96-well microplate spectrophotometer (VICTOR3 V Multilabel Counter; PerkinElmer). Concentration of nitrites released in the medium was determined from the standard curve generated with known concentrations of sodium nitrite. Results are expressed as mean concentration of nitrites (μM) ± SEM, from three different samples.
(In general: The Griess reaction detects nitrite, a stable product of nitric oxide.)

The test system of experiment [2] is BV-2 murine microglial cells. Description: RT-PCR expression of inflammatory mediators in LPS-activated BV-2 cells. The protocol: BV-2 cells were treated with 13 or ANR 94 (10 nM) and activated with 100 ng/mL LPS for 24 h. Total RNA was isolated, and proinflammatory cytokine and enzyme expressions were measured using RT-PCR (Figure 5).
Cell Cultures and Treatments: BV-2 murine microglial cells (a gift from Prof. Elisabetta Blasi of the University of Modena and Reggio Emilia, Modena, Italy) were maintained at 37 °C and 5% CO2 in a humidified incubator and grown in DMEM supplemented with 10% (v/v) low-endotoxin fetal bovine serum (Euroclone—Milan, Italy), 2 mM L-glutamine, 50 U/mL penicillin, and 50 μg/mL streptomycin (Sigma-Aldrich–Merck, Milan, Italy). Cells were seeded at 50,000 cells/mL in 96-well tissue culture plates for the viability assay, in 6-well tissue culture plates for the Griess assay and RT-PCR assay. BV-2 cells were treated for 24 h with ANR 94 or 13 at different concentrations and then exposed to LPS (100 ng/mL; Sigma-Aldrich–Merck) for a further 24 h.
Real-Time Polymerase Chain Reaction (PCR): At the end of the experiments, total RNA was extracted by BV-2 cells using RNeasy Mini Kit (QIAGEN GmbH, Hilden, Germany). RNA concentraion and quality were measured on a NanoVue Spectrophotometer (GE Healthcare, Milano, Italy). iScript cDNA Synthesis Kit (Bio-Rad, Hercules, CA, USA) was used to synthesize cDNA starting from the extracted RNA, following the supplier’s instructions. PCR was performed by adding 2.5 μL (12.5 ng) of cDNA, 5 μL SsoAdvanced Universal SYBR Green Supermix (Bio-Rad), and 0.5 μL (500 nM) of each primer (Table 2) to a PCR tube. cDNA amplification was started at 95 °C for 30 s to activate the polymerase, followed by 40 cycles of 5 s at 95 °C and 30 s at 60 °C. Normalized expression levels were calculated relative to the control cells according to the 2^−ΔΔCT method.

The target of the next experiment is T1, A2BAR (Homo sapiens, UniProt P29275).
T1 construct: expressed in transfected cells
T1 sequence (P29275 1-332): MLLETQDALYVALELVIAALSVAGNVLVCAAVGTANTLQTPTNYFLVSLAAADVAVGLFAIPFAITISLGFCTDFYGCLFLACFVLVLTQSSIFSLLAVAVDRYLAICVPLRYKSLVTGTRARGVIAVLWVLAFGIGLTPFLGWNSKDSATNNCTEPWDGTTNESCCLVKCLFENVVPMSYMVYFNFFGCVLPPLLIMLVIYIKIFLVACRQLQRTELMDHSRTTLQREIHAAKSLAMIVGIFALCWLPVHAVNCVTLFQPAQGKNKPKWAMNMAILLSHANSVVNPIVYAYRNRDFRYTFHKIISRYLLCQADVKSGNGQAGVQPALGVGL
Description: Functional study at A2BAR (GloSensor cAMP assay; inhibition of NECA-stimulated adenylyl cyclase activity). The conditions noted are these: Ki calculated from IC50 of inhibition of NECA-stimulated adenylyl cyclase activity, CHO cells. The protocol: The affinities of the newly synthesized compounds 7–13 and 17–21 were determined in binding studies at human recombinant A1, A2A, and A3 ARs, stably transfected in Chinese hamster ovary (CHO) cells, using [^3H]CCPA (2-chloro-N^6-cyclopentylAdo), [^3H]NECA (5′-N-ethylcarboxamidoAdo), and [^3H]HEMADO (2-hexynyl-N^6-methylAdo) as respective radioligands. Most of the compounds were also evaluated at A2BARs in a functional study using the GloSensor cAMP assay. The results are reported in Table 1 as Ki values in nM (± standard errors). In the case of A2BARs, Ki-values were calculated from IC50-values determined by the inhibition of NECA-stimulated adenylyl cyclase activity.

Where [3] appears, read: 10 nM for 24 h, then 100 ng/mL LPS 24 h.

pKi: −log10 of the molar value.

In the case of `CCn1c(-c2ccco2)nc2c(N)nc(NCCc3ccc(O)cc3)nc21` [compound 13, 4-(2-((6-Amino-9-ethyl-8-(furan-2-yl)-9H-purin-2-yl)amino)ethyl)phenol], the “NO level in culture medium vs LPS treated cells” value in experiment [1] (1 nM compound) is reported as “significantly reduced the NO level”. Besides, in experiment [1] (10 nM compound), the “NO level in culture medium vs LPS treated cells” value is on record as “significantly reduced the NO level”. The “IL-10 mRNA expression” value in experiment [2] (10 nM before 100 ng/mL LPS 24 h) is “maintained IL-10 expression to a level comparable to the control cells”. Further, in experiment [2] (setting [3]), the “COX-2 mRNA expression vs LPS” value is recorded as “significantly reduced the expression”, the “IL-1β mRNA expression vs LPS” value is “significantly reduced the expression”, the “IL-6 mRNA expression vs LPS” value is “significantly reduced the expression” and the “iNOS mRNA expression vs LPS” value is reported as “significantly reduced the expression”. For the same compound, the “NLRP3 mRNA expression vs LPS” value in experiment [2] (10 nM pre-treatment, 100 ng/mL LPS 24 h) is “significantly reduced”. For the same compound, the negative-log Ki (pKi) – broadly, −log10 of the Ki, conventionally taken in molar units – at A2BAR was 5.84.
